The text below walks through data of patent publication US6121257A, “Sulfamate containing macrocyclic immunomodulators” (Abbott Laboratories, priority 1999, dated 2000).

For the experiment, the system named is human mixed lymphocyte reaction (MLR). Nature of the experiment: human mixed lymphocyte reaction (MLR) assay. Format: cell-based. Conditions: Table 1. As for the experimental part: The immunosuppressant activity of the compounds of the present invention was determined using the human mixed lymphocyte reaction (MLR) assay described by Kino, T. et al., in Transplantation Proceedings, XIX(5):36-39, Suppl. 6 (1987), hereby incorporated by reference.
The compound `CC[C@@H]1/C=C(\C)C[C@H](C)C[C@H](OC)[C@H]2O[C@@](O)(C(=O)C(=O)N3CCCC[C@H]3C(=O)O[C@H](/C(C)=C/[C@@H]3CC[C@@H](OS(=O)(=O)NC(=O)OC)[C@H](OC)C3)[C@H](C)[C@@H](O)CC1=O)[C@H](C)C[C@@H]2OC` [Example 1, (1R,9S,12S,13R,14S,17R,21S,23S,24R,25S,27R)-17-ethyl-1,14-dihydroxy-23,25-dimethoxy-12-{(E)-2-[(1R,3R,4R)-3-methoxy-4-({[(methoxycarbonyl)amino]sulfonyl)oxy)cyclohexyl]-1-methylethenyl}-13,19,21,27-tetramethyl-2,3,10,16-tetraoxo-11,28-dioxa-4-azatricyclo[22.3.1.0^4,9]octacos-18-ene] gave an IC50 of 0.73 nM.
The same measure for `CCOC(=O)NS(=O)(=O)O[C@@H]1CC[C@@H](/C=C(\C)[C@H]2OC(=O)[C@@H]3CCCCN3C(=O)C(=O)[C@]3(O)O[C@H]([C@@H](OC)C[C@@H](C)C/C(C)=C/[C@@H](CC)C(=O)C[C@H](O)[C@H]2C)[C@@H](OC)C[C@H]3C)C[C@H]1OC` [Example 2, (1R,9S12S,13R,14S,17R,21S,23S,24R,25S,27R)-12-{(E)-2-[(1R,3R,4R)-4-({[(ethoxycarbonyl)amino]sulfonyl}oxy)-3-methoxycyclohexyl]-1-methylethenyl}-17-ethyl-1,14-dihydroxy-23,25-dimethoxy-13,19,21,27-tetramethyl-2,3,10,16-tetraoxo-11,28-dioxa-4-azatricyclo[22.3.1.0^4,9]octacos-18-ene]: 0.57 nM; for `CC[C@@H]1/C=C(\C)C[C@H](C)C[C@H](OC)[C@H]2O[C@@](O)(C(=O)C(=O)N3CCCC[C@H]3C(=O)O[C@H](/C(C)=C/[C@@H]3CC[C@@H](OS(=O)(=O)NC(=O)OCc4ccccc4)[C@H](OC)C3)[C@H](C)[C@@H](O)CC1=O)[C@H](C)C[C@@H]2OC` [Example 3, (1R,9S,12S,13R,14S,17R,21 S,23S,24R,25S,27R)-12-((E)-2-{(1R,3R,4R)-4-[({[(benzyloxy)carbonyl]amino]sulfonyl)oxy]-3-methoxycyclohexyl}-1-methylethenyl)-17-ethyl-1,14-dihydroxy-23,25-dimethoxy-13,19,21,27-tetramethyl-2,3,10,16-tetraoxo-11,28-dioxa-4-azatricyclo[22.3.1.0^4,9]octacos-18-ene]: 3.96 nM.
With `CC[C@@H]1/C=C(\C)C[C@H](C)C[C@H](OC)[C@H]2O[C@@](O)(C(=O)C(=O)N3CCCC[C@H]3C(=O)O[C@H](/C(C)=C/[C@@H]3CC[C@@H](OS(=O)(=O)NC(=O)OC(C)(C)C)[C@H](OC)C3)[C@H](C)[C@@H](O)CC1=O)[C@H](C)C[C@@H]2OC` [Example 4, (1R,9S,12S,13R,14S,17R,21S,23S,24R,25S,27R)-12-{(E)-2-[(1R,3R,4R)-4-({[(tert-butoxycarbonyl)amino]sulfonyl}oxy)-3-methoxycyclohexyl]-1-methylethenyl}-17-ethyl-1,14-dihydroxy-23,25-dimethoxy-13,19,21,27-tetramethyl-2,3,10,16-tetraoxo-11,28-dioxa-4-azatricyclo[22.3.1.0^4,9]octacos-18-ene] the figure was 0.99 nM.
The same measure for `CC[C@@H]1/C=C(\C)C[C@H](C)C[C@H](OC)[C@H]2O[C@@](O)(C(=O)C(=O)N3CCCC[C@H]3C(=O)O[C@H](/C(C)=C/[C@@H]3CC[C@@H](OS(=O)(=O)NC(=O)OC4CCCC4)[C@H](OC)C3)[C@H](C)[C@@H](O)CC1=O)[C@H](C)C[C@@H]2OC` [Example 5, (1R,9S,12S,13R,14S,17R,21S,23S,24R,25S,27R)-12-((E)-2-{(1R,3R.4R)-4-[({[(cyclopentyloxy)carbonyl]amino}sulfonyl)oxy]-3-methoxycyclohexyl}-1-methylethenyl)-17-ethyl-1,14-dihydroxy-23,25-dimethoxy-13,19,21,27-tetramethyl-2,3,10,16-tetraoxo-11,28-dioxa-4-azatricyclo[22.3.1.0^4,9]octacos-18-ene]: 26.1 nM.
`CC[C@@H]1/C=C(\C)C[C@H](C)C[C@H](OC)[C@H]2O[C@@](O)(C(=O)C(=O)N3CCCC[C@H]3C(=O)O[C@H](/C(C)=C/[C@@H]3CC[C@@H](OS(=O)(=O)NC(=O)OC4CCCCC4)[C@H](OC)C3)[C@H](C)[C@@H](O)CC1=O)[C@H](C)C[C@@H]2OC` [Example 6, (1R,9S,12S,13R,14S,17R,21S,23S,24R,25S,27R)-12-((E)-2-{(1R,3R,4R)-4-[({[(cyclohexyloxy)carbonyl]amino}sulfonyl)oxy]-3-methoxycyclohexyl}-1-methylethenyl)-17-ethyl-1,14-dihydroxy-23,25-dimethoxy-13,19,21,27-tetramethyl-2,3,10,16-tetraoxo-11,28-dioxa-4-azatricyclo[22.3.1.0^4,9]octacos-18-ene] registered an IC50 of 4.7 nM. Compared with the last compound, the IC50 is about 5.6-fold lower.
With `CC[C@@H]1/C=C(\C)C[C@H](C)C[C@H](OC)[C@H]2O[C@@](O)(C(=O)C(=O)N3CCCC[C@H]3C(=O)O[C@H](/C(C)=C/[C@@H]3CC[C@@H](OS(=O)(=O)NC(=O)OC4CCCCCC4)[C@H](OC)C3)[C@H](C)[C@@H](O)CC1=O)[C@H](C)C[C@@H]2OC` [Example 7, (1R,9S,12S,13R,14S,17R,21S,23S,24R,25S,27R)-12-((E)-2-{(1R,3R,4R)-4-[({[(cycloheptyloxy)carbonyl]amino}sulfonyl)oxy]-3-methoxycyclohexyl}-1-methylethenyl)-17-ethyl-1,14-dihydroxy-23,25-dimethoxy-13,19,21,27-tetramethyl-2,3,10,16-tetraoxo-11,28-dioxa-4-azatricyclo[22.3.1.0^4,9]octacos-18-ene] the figure was 9.63 nM.
With `CC[C@@H]1/C=C(\C)C[C@H](C)C[C@H](OC)[C@H]2O[C@@](O)(C(=O)C(=O)N3CCCC[C@H]3C(=O)O[C@H](/C(C)=C/[C@@H]3CC[C@@H](OS(=O)(=O)NC(=O)OCc4ccncc4)[C@H](OC)C3)[C@H](C)[C@@H](O)CC1=O)[C@H](C)C[C@@H]2OC` [Example 8, (1R,9S,12S,13R,14S,17R,21S,23S,24R,25S,27R)-17-ethyl-1,14-dihydroxy-23,25-dimethoxy-12-((E)-2-{(1R,3R,4R)-3-methoxy-4-[({[(4-pyridinylmethoxy)carbonyl]amino}sulfonyl)oxy]cycyclohexyl}-1-methylethenyl)-13,19,21,27-tetramethyl-2,3,10,16-tetraoxo-11,28-dioxa-4-azatricyclo[22.3.1.0^4,9]octacos-18-ene] the figure was 0.1 nM; with `CC[C@@H]1/C=C(\C)C[C@H](C)C[C@H](OC)[C@H]2O[C@@](O)(C(=O)C(=O)N3CCCC[C@H]3C(=O)O[C@H](/C(C)=C/[C@@H]3CC[C@@H](OS(=O)(=O)NC(=O)OCc4cccnc4)[C@H](OC)C3)[C@H](C)[C@@H](O)CC1=O)[C@H](C)C[C@@H]2OC` [Example 9, (1R,9S,12S,13R,14S,17R,21S,23S,24R,25S,27R)-17-ethyl-1,14-dihydroxy-23,25-dimethoxy-12-((E)-2-{(1R,3R,4R)-3-methoxy-4-[({[(3-pyridinylmethoxy)carbonyl]amino}sulfonyl)oxy]cyclohexyl}-1-methylethenyl)-13,19,21,27-tetramethyl-2,3,10,16-tetraoxo-11,28-dioxa-4-azatricyclo[22.3.1.0^4,9]octacos-18-ene], 4.77 nM; with `CC[C@@H]1/C=C(\C)C[C@H](C)C[C@H](OC)[C@H]2O[C@@](O)(C(=O)C(=O)N3CCCC[C@H]3C(=O)O[C@H](/C(C)=C/[C@@H]3CC[C@@H](OS(=O)(=O)NC(=O)OCc4ccccn4)[C@H](OC)C3)[C@H](C)[C@@H](O)CC1=O)[C@H](C)C[C@@H]2OC` [Example 10, (1R,9S,12S.13R,14S,17R,21S,23S,24R,25S,27R)-17-ethyl-1,14-dihydroxy-23,25-dimethoxy-12-((E)-2-[(1R,3R,4R)-3-methoxy-4-[({[(2-pyridinylmethoxy)carbonyl]amino}sulfonyl)oxy]cyclohexyl]-1-methylethenyl)-13,19,21,27-tetramethyl-2,3,10,16-tetraoxo-11,28-dioxa-4-azatricyclo[22.3.1.0^4,9]octacos-18-ene], 0.16 nM.
With `CC[C@@H]1/C=C(\C)C[C@H](C)C[C@H](OC)[C@H]2O[C@@](O)(C(=O)C(=O)N3CCCC[C@H]3C(=O)O[C@H](/C(C)=C/[C@@H]3CC[C@@H](OS(=O)(=O)NC(=O)OCc4ccc([N+](=O)[O-])cc4)[C@H](OC)C3)[C@H](C)[C@@H](O)CC1=O)[C@H](C)C[C@@H]2OC` [Example 11, (1R,9S,12S,13R,14S,17R,21S,23S,24R,25S,27R)-17-ethyl-1,14-dihydroxy-23,25-dimethoxy-12-[(E)-2-((1R,3R,4R)-3-methoxy-4-{[({[(4-nitrobenzyl)oxy]carbonyl}amino)sulfonyl]oxy}cyclohexyl)-1-methylethenyl]-13,19,21,27-tetramethyl-2,3,10,16-tetraoxo-11,28-dioxa-4-azatricyclo[22.3.1.0^4,9]octacos-18-ene] the figure was 6.68 nM.
On to `CC[C@@H]1/C=C(\C)C[C@H](C)C[C@H](OC)[C@H]2O[C@@](O)(C(=O)C(=O)N3CCCC[C@H]3C(=O)O[C@H](/C(C)=C/[C@@H]3CC[C@@H](OS(=O)(=O)NC(=O)O[C@@H]4C[C@H](C)CC[C@H]4C(C)C)[C@H](OC)C3)[C@H](C)[C@@H](O)CC1=O)[C@H](C)C[C@@H]2OC` [Example 12], for which the midpoint of inhibition, the IC50, lay at 24.5 nM.
With `CC[C@@H]1/C=C(\C)C[C@H](C)C[C@H](OC)[C@H]2O[C@@](O)(C(=O)C(=O)N3CCCC[C@H]3C(=O)O[C@H](/C(C)=C/[C@@H]3CC[C@@H](OS(=O)(=O)NC(=O)OCC45CC6CC(CC(C6)C4)C5)[C@H](OC)C3)[C@H](C)[C@@H](O)CC1=O)[C@H](C)C[C@@H]2OC` [Example 13, (1R,9S,12S,13R,14S,17R,21S,23S,24R,25S,27R)-12-((E)-2-{(1R,3R,4R)-4-[({[(1-adamantylmethoxy)carbonyl]amino}sulfonyl)oxy]-3-methoxycyclohexyl}-1-methylethenyl)-17-ethyl-1,14-dihydroxy-23,25-dimethoxy-13,19,21,27-tetramethyl-2,3,10,16-tetraoxo-11,28-dioxa-4-azatricyclo[22.3.1.0^4,9]octacos-18-ene] the figure was 21.6 nM.

One may read the IC50 as the concentration that inhibits the measured activity by half.
